Results as given in patent publication US8017350B2, “Glimepiride- and insulin-induced glycosylphosphatidylinositol-specific phospholipase C regulation” (Sanofi-Aventis Deutschland GmbH, priority 2004, dated 2011).

Legend:
[1] = test system: rat liver PI-PLC; experiment: mammalian PI-PLC assay; assay type: biochemical; conditions: 50 μM
Procedure: Hormone-sensitive lipase (HSL) and lipoprotein lipase (LPL) were measured using a radiolabeled triolein droplet emulsion as described in “Vertesy et al., (2002) Journal Antibiotics 55:480-494”. Pancreatic lipase (PL) was determined by incubation of 0.25 mmol tributyrin in 2 ml of 5 mM Tris/HCl (pH 6.5), 6 mM sodium taurodeoxycholate, 150 mM NaCl, 1 mM CaCl2 with porcine PL and colipase in the same buffer using a recording pH stat (stirring at 1000 rpm at 25° C.) with the pH adjusted to 6.5. PC-PLC was assayed by incubation of 0.2 ml of 10 mM dipalmitoyllecithin, 0.1 ml of 10 mM SDC and 0.1 ml of 0.03 M CaCl2 with bacterial PC-PLC (in 50 mM Tris/HCl, pH 7.5, 0.1% BSA) for 10 min at 37° C. The reaction was terminated by addition of 0.1 ml of 50% TCA and subsequently of 2.5 ml of […]. After centrifugation (1500×g, 15 min), 0.2-ml portions of the upper methanol/water phase (˜1.33 ml) were removed, supplemented with 0.5 ml of 60% HClO4, then heated at 170° C. for 1 h and finally analyzed for inorganic phosphate. Mammalian PI-PLC was measured by incubation of 0.1 ml of 10 mM PI, 0.1 ml of 0.8% sodium deoxycholate, 0.1% BSA, 0.2 ml of 100 mM sodium borate (pH 7.5) and rat liver PI-PLC for 20 min at 37° C. The reaction was terminated and further processed as described for the PC-PLC. […] Radioactive phosphatidic acid was detected by phosphorimaging. […]

[2] = test system: lipolysis, rat adipocytes; experiment: Isoproterenol-induced lipolysis in rat adipocytes; assay type: cell-based; conditions: GPI-2350 50 μM
Procedure: Electroporation was performed as described in “Müller, G. et al., (2000) Mol. Cell. Biol. 20: 4708-4723”. Lipolysis was determined as release of glycerol or fluorescent NBD-FA from prelabeled and isoproterenol-stimulated adipocytes as described in “Müller, G. et al., (2003) Biochimie 85: 1245-1256”. Gce1 was detected by photolabeling of solubilized plasma membranes or hc/lcDIGs (10-50 μg protein) with 8-N3—[^32P]cAMP and subsequent phosphorimaging as described in “Müller, G. et al., (1994) Biochemistry 33: 12149-12159”. 5′-Nuc, aP and AChE activities were measured according to “Eliakim, R. et al., (1990) Biochim. Biophys. Acta 1355: 293-302”. Protein was determined using the BCA protein determination kit from Pierce (Rockford, Ill.) and BSA as calibration standard. SDS-PAGE was performed using precast gels (Novex, San Diego, Calif.; 10% Bis-Tris resolving gel, morpholinopropanesulfonic acid-SDS running buffer). Lumiimages were evaluated on a LumiImager using LumiImager software (Roche Diagnostics). Phosphor- and fluorescence images were processed and quantified using the Storm 860 PhosphorImager system (Molecular Dynamics, Gelsenkirchen, Germany). Figures were constructed using the ADOBE PHOTOSHOP software (Adobe Systems, Mountain View, Calif.). […]

CCCCCCCCCCCCP1(=O)O[C@@H]2[C@H](O)[C@@H](O)[C@H](O)[C@@H](O)[C@@H]2O1 (some centres unmarked) [GPI-2350, myo-inositol-1,2-cyclo-dodecylphosphonic acid]
effect on PI-PLC [1]: not significantly affected
glimepiride inhibition of lipolysis with GPI-2350 [2]: to lower than control values
